This note sets out measurements from patent US6406868B1, “AMPA-binding human GluR1 receptors” (priority 1992, dated 2002).

The test system of test [1] is human GluR1B receptor. Description: AMPA-binding assay with membranes of transfected COS-1 cells. The conditions noted are these: 10 nM [3H]-AMPA; membrane preparations from human GluR1B receptor-producing COS cells; non-specific binding with 1 mM L-glutamate; FIG. 3. On the procedure: (§1) Transfected cells in the frozen state were resuspended in ice-cold distilled water using a hand homogenizer, sonicated for 5 seconds, and then centrifuged for 20 minutes at 50,000 g. The supernatant was discarded and the membrane pellet stored frozen at −70° C.
(§2) COS cell membrane pellets were suspended in ice cold 5 mM Tris-HCI (pH 7.55, 5C) and centrifuged again at 50,000 g for 10 minutes in order to remove endogenous glutamate that would compete for binding. Pellets were resuspended in ice cold 50 mM Tris-HCl (pH 7.55) buffer and the resultant membrane preparation was used as tissue source for binding experiments described below. Proteins were determined using the Pierce Reagent with BSA as standard.
Binding assays were then performed, using an amount of COS-derived membrane equivalent to from 25-100 ug as judged by protein determination and selected radiolabelled ligand. In particular, for AMPA-binding assays, incubation mixtures consisted of 25-100 ug tissue protein and D,L-alpha-[5-methyl-3H]amino-3-hydroxy-5-methylisoxazole-4-propionic acid (3H-AMPA, 27.6Ci/mmole, 10 nM final) with 0.1 M KSCN and 2.5 mM CaCl2 in the 1 ml final volume. Non-specific binding was determined in the presence of 1 mM L-glutamate. […] Pellets were washed twice in 4 ml of the cold incubation buffer, then 5 ml of Beckman Ready-Protein Plus scintillation cocktail was added, for counting.

The subject of test [2] is human GluR1B receptor. Briefly: NMDA binding to membranes of transfected COS-1 cells. The conditions noted are these: membrane preparations from human GluR1B receptor-producing COS cells. On the procedure: as §1, §2
For test [3], the system named is human GluR1B receptor. Description: kainate-binding assay with membranes of transfected COS-1 cells. The conditions noted are these: [vinylidene-3H] kainic acid 5 nM; membrane preparations from human GluR1B receptor-producing COS cells. On the procedure: as §1, §2
For kainate-binding assays, incubation mixtures consisted of 25-100 ug tissue protein and [vinylidene-3H] kainic acid (58Ci/mmole, 5 nM final) in the cold incubation buffer, 1 ml final volume. Non-specific binding was determined in the presence of 1 mM L-glutamate. Samples were incubated as for the AMPA-binding assays, and bound and free ligand were separated by rapid filtration using a Brandel cell harvester and GF/B filters pre-soaked in ice-cold 0.3% polyethyleneimine. Filters were washed twice in 6 ml of the cold incubation buffer, then placed in scintillation vials with 5 ml of Beckman Ready-Protein Plus scintillation cocktail for counting.

Regarding `[3H]Cc1onc(O)c1CC(N)C(=O)O` (racemic) [[3H]-AMPA, D,L-alpha-[5-methyl-3H]amino-3-hydroxy-5-methylisoxazole-4-propionic acid], the specific binding with human GluR1B receptor [1] is given as 100-150 fmole/mg protein.
Turning to `CN[C@H](CC(=O)O)C(=O)O` [NMDA, N-methyl-D-aspartate], the “binding of NMDA” value in the test on human GluR1B receptor [2] is recorded as “little or no demonstrable binding”.
As for `C=C(C)[C@H]1CN[C@H](C(=O)O)[C@H]1CC(=O)O` [kainate, [vinylidene-3H] kainic acid], the binding of kainate entry in the test with human GluR1B receptor [3] is reported as “little or no demonstrable binding”.
